Reference: patent US20100298141A1, “SUBSTITUTED PYRIDINE N-OXIDE HERBICIDES” (E. I. DU PONT DE NEMOURS AND COMPANY, priority 2007, published 2010)

Tests used:
Assay in all cases: Test F preemergence test
mustard = type: in vivo, Brassica nigra; conditions: scale 0 to 100; for Black Mustard plant response rating: 62 g ai/ha
Summary of the method: (§1)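 Visual ratings relative to controls, taken after 14 to 21 days in a greenhouse. Test chemicals, formulated in a surfactant-containing non-phytotoxic solvent mixture, were applied preemergence to sown seeds or postemergence to sugarcane plants.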

quackgrass = type: in vivo, Elytrigia repens; conditions: scale 0 to 100; for Quackgrass plant response rating: 62 g ai/ha
Summary of the method: as §1

dallisgrass = type: in vivo, Paspalum dilatatum; conditions: scale 0 to 100; for Dallisgrass plant response rating: 62 g ai/ha
Summary of the method: as §1

annual bluegrass = type: in vivo, Poa annua; conditions: scale 0 to 100; for Bluegrass plant response rating: 62 g ai/ha
Summary of the method: as §1

southern sandbur = type: in vivo, Cenchrus echinatus; conditions: scale 0 to 100; for Sandbur plant response rating: 62 g ai/ha
Summary of the method: as §1

kochia = type: in vivo, Kochia scoparia; conditions: scale 0 to 100; for Kochia plant response rating: 62 g ai/ha
Summary of the method: as §1

common mallow = type: in vivo, Malva sylvestris; conditions: scale 0 to 100; for Mallow plant response rating: 62 g ai/ha
Summary of the method: as §1

barnyardgrass = type: in vivo, Echinochloa crus-galli; conditions: scale 0 to 100; for Barnyardgrass plant response rating: 62 g ai/ha
Summary of the method: as §1

large crabgrass = type: in vivo, Digitaria sanguinalis; conditions: scale 0 to 100; for Crabgrass, Large plant response rating: 62 g ai/ha
Summary of the method: as §1

Italian ryegrass = type: in vivo, Lolium multiflorum; conditions: scale 0 to 100; for Ryegrass, Italian plant response rating: 62 g ai/ha
Summary of the method: as §1

common purslane = type: in vivo, Portulaca oleracea; conditions: scale 0 to 100; for Purslane plant response rating: 62 g ai/ha
Summary of the method: as §1

guineagrass = type: in vivo, Panicum maximum; conditions: scale 0 to 100; for Guineagrass plant response rating: 62 g ai/ha
Summary of the method: as §1

Virginia dayflower = type: in vivo, Commelina virginica; conditions: scale 0 to 100; for Dayflower plant response rating: 62 g ai/ha
Source text: Seeds of plant species selected from bermudagrass (Cynodon dactylon), Surinam grass (Brachiaria decumbens), large crabgrass (Digitaria sanguinalis), green foxtail (Setaria viridis), goosegrass (Eleusine indica), johnsongrass (Sorghum halepense), kochia (Kochia scoparia), pitted morningglory (Ipomoea lacunosa), purple nutsedge (Cyperus rotundus), common ragweed (Ambrosia elation), mustard (Brassica nigra), guineagrass (Panicum maximum), […] (Paspalum dilatatum), barnyardgrass (Echinochloa crus-galli), southern sandbur (Cenchrus echinatus), common sowthistle (Sonchus oleraceous), prickly […] spinosa), Italian ryegrass (Lolium multiflorum), common purslane (Portulaca oleracea), broadleaf signalgrass (Brachiaria platyphylla), common groundsel (Senecio vulgaris), common chickweed (Stellaria media), Virginia dayflower (Commelina virginica), annual bluegrass (Poa annua), naked crabgrass (Digitaria nuda), […] cochinchinensis), quackgrass (Elytrigia repens), Canada horseweed (Conyza canadensis), field bindweed (Convolvulus arvensis), […] (Bidens bipinnata), common mallow (Malva sylvestris), Russian thistle (Salsola kali), and sugarcane (Saccharum officinarum) were planted and treated preemergence with test chemicals formulated in a non-phytotoxic solvent mixture which included a surfactant. At a different time, sugarcane was treated with postemergence applications of some of the test chemicals formulated in the same manner. Plants were approximately 3- to 4-leaf stage for the postemergence treatments. Treated plants and controls were maintained in a greenhouse for 14 to 21 days, after which time all species were compared to controls and visually evaluated. […] A dash (-) response means no test result.

common groundsel = type: in vivo, Senecio vulgaris; conditions: scale 0 to 100; for Groundsel plant response rating: 62 g ai/ha
Summary of the method: as §1

Surinam grass = type: in vivo, Brachiaria decumbens; conditions: scale 0 to 100; for Surinam Grass plant response rating: 62 g ai/ha
Summary of the method: as §1

field bindweed = type: in vivo, Convolvulus arvensis; conditions: scale 0 to 100; for Field Bindweed plant response rating: 62 g ai/ha
Summary of the method: as §1

SMILES: Cn1nc(C(F)(F)F)c(C[S+]([O-])c2ccc(Cl)c[n+]2[O-])c1OC(F)F (centres unmarked) [Compound 6]
- Plant response rating, Black Mustard (mustard; 8 g ai/ha, preemergence): 0
- Black Mustard plant response rating (mustard; Preemergence): 100
- Plant response rating, Black Mustard (mustard; Preemergence, 16 g ai/ha): 0
- Plant response rating, Black Mustard (mustard; Preemergence, 31 g ai/ha): 100
- Plant response rating, Quackgrass (quackgrass; 8 g ai/ha, preemergence): 0
- Quackgrass plant response rating (quackgrass; Preemergence): 75
- Plant response rating, Quackgrass (quackgrass; Preemergence, 16 g ai/ha): 60
- Plant response rating, Quackgrass (quackgrass; Preemergence, 31 g ai/ha): 65
- Plant response rating, Dallisgrass (dallisgrass; 8 g ai/ha, preemergence): 0
- Dallisgrass plant response rating (dallisgrass; Preemergence): 70
- Plant response rating, Dallisgrass (dallisgrass; Preemergence, 16 g ai/ha): 20
- Plant response rating, Dallisgrass (dallisgrass; Preemergence, 31 g ai/ha): 50
- Plant response rating, Bluegrass (annual bluegrass; 8 g ai/ha, preemergence): 0
- Bluegrass plant response rating (annual bluegrass; Preemergence): 90
- Plant response rating, Bluegrass (annual bluegrass; Preemergence, 16 g ai/ha): 10
- Plant response rating, Bluegrass (annual bluegrass; Preemergence, 31 g ai/ha): 75
- Plant response rating, Sandbur (southern sandbur; 8 g ai/ha, preemergence): 0
- Plant response rating, Sandbur (southern sandbur; 16 g ai/ha, preemergence): 75
- Sandbur plant response rating (southern sandbur; Preemergence): 100
- Plant response rating, Sandbur (southern sandbur; Preemergence, 31 g ai/ha): 100
- Plant response rating, Kochia (kochia; 8 g ai/ha, preemergence): 0
- Kochia plant response rating (kochia; Preemergence): 60
- Plant response rating, Kochia (kochia; Preemergence, 16 g ai/ha): 0
- Plant response rating, Kochia (kochia; Preemergence, 31 g ai/ha): 0
- Plant response rating, Mallow (common mallow; 8 g ai/ha, preemergence): 0
- Mallow plant response rating (common mallow; Preemergence): 90
- Plant response rating, Mallow (common mallow; Preemergence, 16 g ai/ha): 0
- Plant response rating, Mallow (common mallow; Preemergence, 31 g ai/ha): 30
- Plant response rating, Barnyardgrass (barnyardgrass; 8 g ai/ha, preemergence): 0
- Barnyardgrass plant response rating (barnyardgrass; Preemergence): 90
- Plant response rating, Barnyardgrass (barnyardgrass; Preemergence, 16 g ai/ha): 70
- Plant response rating, Barnyardgrass (barnyardgrass; Preemergence, 31 g ai/ha): 80
- Plant response rating, Crabgrass, Large (large crabgrass; 8 g ai/ha, preemergence): 0
- Crabgrass, Large plant response rating (large crabgrass; Preemergence): 95
- Plant response rating, Crabgrass, Large (large crabgrass; Preemergence, 16 g ai/ha): 15
- Plant response rating, Crabgrass, Large (large crabgrass; Preemergence, 31 g ai/ha): 70
- Plant response rating, Ryegrass, Italian (Italian ryegrass; 8 g ai/ha, preemergence): 0
- Ryegrass, Italian plant response rating (Italian ryegrass; Preemergence): 85
- Plant response rating, Ryegrass, Italian (Italian ryegrass; Preemergence, 16 g ai/ha): 40
- Plant response rating, Ryegrass, Italian (Italian ryegrass; Preemergence, 31 g ai/ha): 75
- Plant response rating, Purslane (common purslane; 8 g ai/ha, preemergence): 10
- Purslane plant response rating (common purslane; Preemergence): 70
- Plant response rating, Purslane (common purslane; Preemergence, 16 g ai/ha): 20
- Plant response rating, Purslane (common purslane; Preemergence, 31 g ai/ha): 50
- Plant response rating, Guineagrass (guineagrass; 8 g ai/ha, preemergence): 100
- Guineagrass plant response rating (guineagrass; Preemergence): 100
- Plant response rating, Guineagrass (guineagrass; Preemergence, 16 g ai/ha): 100
- Plant response rating, Guineagrass (guineagrass; Preemergence, 31 g ai/ha): 100
- Plant response rating, Dayflower (Virginia dayflower; 8 g ai/ha, preemergence): 0
- Dayflower plant response rating (Virginia dayflower; Preemergence): 100
- Plant response rating, Dayflower (Virginia dayflower; Preemergence, 16 g ai/ha): 90
- Plant response rating, Dayflower (Virginia dayflower; Preemergence, 31 g ai/ha): 90
- Plant response rating, Groundsel (common groundsel; 8 g ai/ha, preemergence): 0
- Groundsel plant response rating (common groundsel; Preemergence): 75
- Plant response rating, Groundsel (common groundsel; Preemergence, 16 g ai/ha): 50
- Plant response rating, Groundsel (common groundsel; Preemergence, 31 g ai/ha): 75
- Plant response rating, Surinam Grass (Surinam grass; 8 g ai/ha, preemergence): 0
- Plant response rating, Surinam Grass (Surinam grass; 16 g ai/ha, preemergence): 60
- Surinam Grass plant response rating (Surinam grass; Preemergence): 90
- Plant response rating, Surinam Grass (Surinam grass; Preemergence, 31 g ai/ha): 70
- Plant response rating, Field Bindweed (field bindweed; 8 g ai/ha, preemergence): 0
- Field Bindweed plant response rating (field bindweed; Preemergence): 50
- Plant response rating, Field Bindweed (field bindweed; Preemergence, 16 g ai/ha): 50
- Plant response rating, Field Bindweed (field bindweed; Preemergence, 31 g ai/ha): 50

SMILES: Cc1cc[n+]([O-])c([S+]([O-])Cc2c(C(F)(F)F)nn(C)c2OC(F)F)c1 (centres unmarked) [Compound 1]
- Plant response rating, Black Mustard (mustard; 8 g ai/ha, preemergence): 0
- Black Mustard plant response rating (mustard; Preemergence): 100
- Plant response rating, Black Mustard (mustard; Preemergence, 16 g ai/ha): 0
- Plant response rating, Black Mustard (mustard; Preemergence, 31 g ai/ha): 80
- Plant response rating, Quackgrass (quackgrass; 8 g ai/ha, preemergence): 0
- Quackgrass plant response rating (quackgrass; Preemergence): 65
- Plant response rating, Quackgrass (quackgrass; Preemergence, 16 g ai/ha): 35
- Plant response rating, Quackgrass (quackgrass; Preemergence, 31 g ai/ha): 50
- Plant response rating, Dallisgrass (dallisgrass; 8 g ai/ha, preemergence): 0
- Dallisgrass plant response rating (dallisgrass; Preemergence): 50
- Plant response rating, Dallisgrass (dallisgrass; Preemergence, 16 g ai/ha): 0
- Plant response rating, Dallisgrass (dallisgrass; Preemergence, 31 g ai/ha): 20
- Plant response rating, Bluegrass (annual bluegrass; 8 g ai/ha, preemergence): 0
- Bluegrass plant response rating (annual bluegrass; Preemergence): 75
- Plant response rating, Bluegrass (annual bluegrass; Preemergence, 16 g ai/ha): 0
- Plant response rating, Bluegrass (annual bluegrass; Preemergence, 31 g ai/ha): 25
- Plant response rating, Sandbur (southern sandbur; 8 g ai/ha, preemergence): 0
- Plant response rating, Sandbur (southern sandbur; 16 g ai/ha, preemergence): 30
- Sandbur plant response rating (southern sandbur; Preemergence): 80
- Plant response rating, Sandbur (southern sandbur; Preemergence, 31 g ai/ha): 60
- Plant response rating, Kochia (kochia; 8 g ai/ha, preemergence): 0
- Kochia plant response rating (kochia; Preemergence): 90
- Plant response rating, Kochia (kochia; Preemergence, 16 g ai/ha): 0
- Plant response rating, Kochia (kochia; Preemergence, 31 g ai/ha): 35
- Plant response rating, Mallow (common mallow; 8 g ai/ha, preemergence): 0
- Mallow plant response rating (common mallow; Preemergence): 100
- Plant response rating, Mallow (common mallow; Preemergence, 16 g ai/ha): 0
- Plant response rating, Mallow (common mallow; Preemergence, 31 g ai/ha): 70
- Plant response rating, Barnyardgrass (barnyardgrass; 8 g ai/ha, preemergence): 5
- Barnyardgrass plant response rating (barnyardgrass; Preemergence): 90
- Plant response rating, Barnyardgrass (barnyardgrass; Preemergence, 16 g ai/ha): 60
- Plant response rating, Barnyardgrass (barnyardgrass; Preemergence, 31 g ai/ha): 80
- Plant response rating, Crabgrass, Large (large crabgrass; 8 g ai/ha, preemergence): 0
- Crabgrass, Large plant response rating (large crabgrass; Preemergence): 95
- Plant response rating, Crabgrass, Large (large crabgrass; Preemergence, 16 g ai/ha): 20
- Plant response rating, Crabgrass, Large (large crabgrass; Preemergence, 31 g ai/ha): 70
- Plant response rating, Ryegrass, Italian (Italian ryegrass; 8 g ai/ha, preemergence): 0
- Ryegrass, Italian plant response rating (Italian ryegrass; Preemergence): 90
- Plant response rating, Ryegrass, Italian (Italian ryegrass; Preemergence, 16 g ai/ha): 0
- Plant response rating, Ryegrass, Italian (Italian ryegrass; Preemergence, 31 g ai/ha): 60
- Plant response rating, Purslane (common purslane; 8 g ai/ha, preemergence): 0
- Purslane plant response rating (common purslane; Preemergence): 80
- Plant response rating, Purslane (common purslane; Preemergence, 16 g ai/ha): 35
- Plant response rating, Purslane (common purslane; Preemergence, 31 g ai/ha): 60
- Plant response rating, Guineagrass (guineagrass; 8 g ai/ha, preemergence): 65
- Guineagrass plant response rating (guineagrass; Preemergence): 100
- Plant response rating, Guineagrass (guineagrass; Preemergence, 16 g ai/ha): 80
- Plant response rating, Guineagrass (guineagrass; Preemergence, 31 g ai/ha): 80
- Plant response rating, Dayflower (Virginia dayflower; 8 g ai/ha, preemergence): 0
- Dayflower plant response rating (Virginia dayflower; Preemergence): 100
- Plant response rating, Dayflower (Virginia dayflower; Preemergence, 16 g ai/ha): 0
- Plant response rating, Dayflower (Virginia dayflower; Preemergence, 31 g ai/ha): 80
- Plant response rating, Groundsel (common groundsel; 8 g ai/ha, preemergence): 0
- Groundsel plant response rating (common groundsel; Preemergence): 35
- Plant response rating, Groundsel (common groundsel; Preemergence, 16 g ai/ha): 20
- Plant response rating, Groundsel (common groundsel; Preemergence, 31 g ai/ha): 35
- Plant response rating, Surinam Grass (Surinam grass; 8 g ai/ha, preemergence): 0
- Plant response rating, Surinam Grass (Surinam grass; 16 g ai/ha, preemergence): 0
- Surinam Grass plant response rating (Surinam grass; Preemergence): 90
- Plant response rating, Surinam Grass (Surinam grass; Preemergence, 31 g ai/ha): 0
- Plant response rating, Field Bindweed (field bindweed; 8 g ai/ha, preemergence): 0
- Field Bindweed plant response rating (field bindweed; Preemergence): 75
- Plant response rating, Field Bindweed (field bindweed; Preemergence, 16 g ai/ha): 0
- Plant response rating, Field Bindweed (field bindweed; Preemergence, 31 g ai/ha): 50
